{"source": "patent US20140206615A1", "about": "“GLP-1 AGONIST AND CARDIOVASCULAR COMPLICATIONS” (NOVO NORDISK A/S, priority 2002, published 2014)", "test_system": "BNP in heart tissue", "test": "BNP mRNA and protein levels in cardiac biopsies of STZ-treated pigs (real-time PCR, RIA)", "type": "in vivo, pig", "settings": "streptozotocin (STZ)-treated pigs; 3.3 μg/kg s.c. once daily for 4 weeks; right atrial, left atrial and left ventricular biopsies; FIG. 1", "description": "Hearts from 12 streptozotocin (STZ)-treated pigs were collected. The pigs were treated with STZ 2 weeks prior to dosing with either the GLP-1 derivative Arg^34, Lys^26(N^ε-(γ-Glu(N^α-hexadecanoyl)))-GLP-1(7-37) (NN2211) for 4 weeks, dose 3.3 μg/kg s.c. once daily, or vehicle. STZ-treated pigs were either hyperglycemic or glucose intolerant and had impaired insulin secretion upon oral glucose tolerance tests. BNP mRNA and protein levels in cardiac biopsies were measured with real-time PCR and RIA assays, respectively. BNP mRNA levels were normalized by β-actin mRNA levels.\nBNP mRNA levels were similar in right atrial (RA), left atrial (LA) and in left ventricular (LV) biopsies from vehicle treated diabetic pigs (−GLP)."}
{"compound": "CCCCCCCCCCCCCCCC(=O)N[C@@H](CCC(=O)NCCCC[C@H](NC(=O)[C@H](C)NC(=O)[C@H](C)NC(=O)[C@H](CCC(N)=O)NC(=O)CNC(=O)[C@H](CCC(=O)O)NC(=O)[C@H](CC(C)C)NC(=O)[C@H](Cc1ccc(O)cc1)NC(=O)[C@H](CO)NC(=O)[C@H](CO)NC(=O)[C@@H](NC(=O)[C@H](CC(=O)O)NC(=O)[C@H](CO)NC(=O)[C@@H](NC(=O)[C@H](Cc1ccccc1)NC(=O)[C@@H](NC(=O)CNC(=O)[C@H](CCC(=O)O)NC(=O)[C@H](C)NC(=O)[C@@H](N)Cc1cnc[nH]1)[C@@H](C)O)[C@@H](C)O)C(C)C)C(=O)N[C@@H](CCC(=O)O)C(=O)N[C@@H](Cc1ccccc1)C(=O)N[C@H](C(=O)N[C@@H](C)C(=O)N[C@@H](Cc1c[nH]c2ccccc12)C(=O)N[C@@H](CC(C)C)C(=O)N[C@H](C(=O)N[C@@H](CCCNC(=N)N)C(=O)NCC(=O)N[C@@H](CCCNC(=N)N)C(=O)NCC(=O)O)C(C)C)[C@@H](C)CC)C(=O)O", "note": "[NN2211, Arg^34, Lys^26(N^ε-(γ-Glu(N^α-hexadecanoyl)))-GLP-1(7-37)]", "values": [{"measurement": "levels of BNP (BNP mRNA normalized by β-actin mRNA) in cardiac biopsies vs vehicle", "value": "significantly lower"}]}
